Data set [1] addresses T1, 24-AcSMT (Acanthamoeba castellanii, UniProt L8GNG7).
T1 construct: gene ACA1_193300; recombinant 24-AcSMT (XP_004336540) expressed in E. coli, lysate preparation
Put plainly: steady-state inhibition of cycloartenol methylation by recombinant enzyme; also turned over to ERGT (GC-MS). The class given is biochemical.

The target of data set [2] is T2, 28-AcSMT (Acanthamoeba castellanii, UniProt L8GKC5).
T2 construct: gene ACA1_237870; recombinant 28-AcSMT (XP_004335307) expressed in E. coli, lysate preparation
Put plainly: steady-state inhibition of […]([…])-methylene lophenol methylation by recombinant enzyme, GC-MS; partition ratio and substrate protection. The format is biochemical.

Data set [3] addresses T1, 24-AcSMT. The experiment in a line: native substrate in steady-state SMT assay (Km). The format is biochemical. To be noted: cited from earlier work.
Data set [4] concerns the target T3, 28-AcSMT (Acanthamoeba castellanii, UniProt L8GKC5).
T3 construct: gene ACA1_237870
T3 sequence (L8GKC5 1-346): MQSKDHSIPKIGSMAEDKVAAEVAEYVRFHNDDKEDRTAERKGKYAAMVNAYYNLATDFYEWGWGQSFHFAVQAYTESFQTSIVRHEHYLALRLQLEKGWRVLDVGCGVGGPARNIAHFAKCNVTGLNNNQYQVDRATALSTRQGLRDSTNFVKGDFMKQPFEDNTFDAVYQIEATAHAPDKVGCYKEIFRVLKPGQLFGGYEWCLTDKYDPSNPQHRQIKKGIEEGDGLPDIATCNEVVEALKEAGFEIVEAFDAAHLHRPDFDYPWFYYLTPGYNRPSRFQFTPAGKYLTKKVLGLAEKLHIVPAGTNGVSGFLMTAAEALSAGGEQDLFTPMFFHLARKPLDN
Put plainly: MALDI-TOF mass shift and retention of 3H-label after Ni-NTA purification; GC-MS of diol products. The class given is binding.

Substrate in data set [5]: C=C(CC[C@@H](C)[C@H]1CC[C@H]2C3=CC[C@H]4[C@H](C)[C@@H](O)CC[C@]4(C)[C@H]3CC[C@]12C)C(C)C
The experiment in a line: cells, lysate or membranes. The class given is biochemical, Acanthamoeba castellanii. The following applies: SAM active site.

T1 sequence (L8GNG7 entry or part of it): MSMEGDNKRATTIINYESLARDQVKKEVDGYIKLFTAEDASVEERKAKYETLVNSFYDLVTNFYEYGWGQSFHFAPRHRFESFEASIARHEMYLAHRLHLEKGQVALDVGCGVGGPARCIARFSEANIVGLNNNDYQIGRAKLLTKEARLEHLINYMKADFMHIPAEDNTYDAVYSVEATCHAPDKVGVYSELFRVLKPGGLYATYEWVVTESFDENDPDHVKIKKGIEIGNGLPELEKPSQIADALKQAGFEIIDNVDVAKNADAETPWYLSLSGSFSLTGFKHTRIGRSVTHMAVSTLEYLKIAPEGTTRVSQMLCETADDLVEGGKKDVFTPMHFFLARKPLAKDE

`CC(C)=C/C=C/[C@@H](C)[C@H]1CC[C@H]2C3=CC=C4C[C@@H](O)CC[C@]4(C)[C@H]3CC[C@]12C` [CHT]: the Ki is 18 µM at 24-AcSMT [1] and 8 µM at 28-AcSMT [2].

Consider `CC(C)=CCC[C@@H](C)[C@H]1CC[C@@]2(C)[C@@H]3CC[C@H]4C(C)(C)[C@@H](O)CC[C@@]45C[C@@]35CC[C@]12C` [cycloartenol], for which the Km at 24-AcSMT [3] was 48 µM.

Take `C=C(/C=C/[C@@H](C)[C@H]1CC[C@H]2C3=CC=C4C[C@@H](O)CC[C@]4(C)[C@H]3CC[C@]12C)C(C)C` [compound 15, ergosta-5,7,22,24(28)-tetraen-3-ol]: on 28-AcSMT [4], the “MALDI-TOF mass shift and retention of 3H-label after Ni-NTA purification; GC-MS” value is “irreversible nature of the ERGT-28-AcSMT complex was further confirmed by MALDI-TOF analysis showing an increase in molecular mass”.

B1: 28-AcSMT (Acanthamoeba castellanii str. Neff) (protein)
chain: T3 sequence (L8GKC5 1-346)
notes: recombinant 28-AcSMT (XP_004335307) expressed in E. coli, lysate preparation
Regarding B1, the Km in data set [5] is 44 µM.

The values are drawn from paper PMC6495176, “Steroidal antibiotics are antimetabolites of Acanthamoeba steroidogenesis with phylogenetic implications” (Journal of Lipid Research, 2019).
